The text below walks through data of patent US10188615B2, “Alkoxy compounds for disease treatment” (Acucela Inc., priority 2007, dated 2019).

For test [1], the target named is isomerase (Mus musculus (Mouse), UniProt Q91ZQ5). Nature of the test: In vivo murine isomerase assay (recovery of 11-cis-retinal after photobleaching). On the set-up: species or system mice. Conditions: for ED50: in vivo inhibition of isomerase, Table 10; for inhibition at 1 mg/kg: read-out: % Inhibition 1 mg/kg, 4 h. The method, then:
The capability of compounds described herein to inhibit isomerase was determined by an in vivo murine isomerase assay. Brief exposure of the eye to intense light (“photobleaching” of the visual pigment or simply “bleaching”) is known to photo-isomerize almost all 11-cis-retinal in the retina. The recovery of 11-cis-retinal after bleaching can be used to estimate the activity of isomerase in vivo. Delayed recovery, as represented by lower 11-cis-retinal oxime levels, indicates inhibition of isomerization reaction.
The mice were allowed to recover 2 hours in the dark. The animals were then sacrificed by carbon dioxide inhalation. Retinoids were extracted from the eye and the regeneration of 11-cis-retinal was assessed at various time intervals.
After the mice were sacrificed, the eyes were immediately removed and placed in liquid nitrogen for storage.
The eyes were placed in 500 μL of bis-tris propane buffer (10 mM, pH ˜7.3) and 20 µL of 0.8M hydroxile amine (pH-7.3). The eyes were cut up into small pieces with small iris scissors and then thoroughly homogenized at 30000 rpm with a mechanical homogenizer (Polytron PT 1300 D) in the tube until no visible tissue remained. 500 μL of methanol and 500 μL of heptane were added to each tube. The tubes were attached to a vortexer so that the contents were mixed thoroughly for 15 minutes in room temperature. The organic phase was separated from the aqueous phase by centrifugation for 10 min at 13K rpm, 4° C. 240 μL of the solution from the top layer (organic phase) was removed and transferred to clean 300 μl glass inserts in HPLC vials using glass pipette and the vials were crimped shut tightly.
Loading volume for each sample is 100 μl; detection wavelength is 360 nm. The area under the curve for 11-cis retinal oxime was calculated by Agilent Chemstation software and was recorded manually. Data processing was performed using Prizm software.
Positive control mice (no compound administered) were sacrificed fully dark-adapted and the eye retinoids analyzed. Light (bleached) control mice (no compound administered) were sacrificed and retinoids isolated and analyzed immediately after light treatment.
Mice were sacrificed 2 hours after bleaching, eyes were enucleated, and retinoid content was analyzed by HPLC.
Recovery control mice (vehicle-only treated) were light-treated and left to recover for 2 hours in the dark before sacrifice and analysis. Light control mice (vehicle only treated) were sacrificed for analysis immediately after photo-bleaching.

For test [2], the target named is visual cycle isomerase (Bos taurus (Bovine), UniProt Q28175). Nature of the test: Bovine in vitro isomerase inhibition assay (RPE microsome membranes). Conditions: Bovine in vitro Inhibition data; inhibition of 11-cis retinol formation; bovine RPE microsomes, 20 μM all-trans retinol, 37° C., 30 minutes; given as ranges.
Procedure: The capability of compounds disclosed herein to inhibit the activity of a visual cycle isomerase was determined.
All tests were performed in duplicate.
Test [3] deals with recombinant human RPE65 and LRAT (Homo sapiens (Human), UniProt Q16518). The experiment in a line: Human in vitro isomerase inhibition assay. The class given is biochemical. Conditions: Human in vitro Inhibition data; inhibition of 11-cis-retinol formation; HEK293 homogenate, all-trans-retinol about 20 μM, 37° C., one hour; given as ranges. The method, then:
The concentration dependent effect of the compounds disclosed herein on the retinol isomerization reaction was also evaluated with a recombinant human enzyme system. […] A homogenate of HEK293 cell clone expressing recombinant human RPE65 and LRAT were the source of the visual enzymes, and exogenous all-trans-retinol (about 20 μM) was used as the substrate. Recombinant human CRALBP (about 80 ug/mL) was added to enhance the formation of 11 cis-retinal. The 200 μL Bis-Tris Phosphate buffer (10 mM, pH 7.2) based reaction mixture also contains 0.5% BSA, and 1 mM NaPPi. In this assay, the reaction was carried out at 37° C. in duplicates for one hour and was terminated by addition of 300 μL methanol. The amount of reaction product, 11-cis-retinol, was measured by HPLC analysis following Heptane extraction of the reaction mixture. […] The ability of the numerous compounds disclosed herein to inhibit isomerization reaction is quantified and the respective IC50 value is determined.

Where only a bound is given, the exact number is not on record here.

Chain of visual cycle isomerase (Q28175 2-533): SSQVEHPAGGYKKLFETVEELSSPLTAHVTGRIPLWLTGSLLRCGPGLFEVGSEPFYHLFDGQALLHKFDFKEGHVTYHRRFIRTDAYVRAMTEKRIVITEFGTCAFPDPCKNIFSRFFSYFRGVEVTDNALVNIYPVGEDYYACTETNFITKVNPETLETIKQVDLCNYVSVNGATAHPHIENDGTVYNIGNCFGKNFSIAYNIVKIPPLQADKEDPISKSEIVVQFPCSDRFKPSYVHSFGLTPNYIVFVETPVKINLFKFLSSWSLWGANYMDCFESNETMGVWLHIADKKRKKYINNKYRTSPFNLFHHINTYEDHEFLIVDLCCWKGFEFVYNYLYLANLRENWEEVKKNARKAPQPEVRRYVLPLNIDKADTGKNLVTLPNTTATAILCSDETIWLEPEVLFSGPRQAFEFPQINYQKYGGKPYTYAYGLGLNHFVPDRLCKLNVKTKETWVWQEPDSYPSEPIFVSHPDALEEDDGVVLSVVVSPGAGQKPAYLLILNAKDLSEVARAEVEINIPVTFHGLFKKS
Chain of recombinant human RPE65 and LRAT (Q16518 2-533): as the sequence (Q28175 2-533) above, with S2I, I135V, V154I, I299L, H320N, E321G, G426C counted along it
Chain of isomerase (Q91ZQ5 whole entry): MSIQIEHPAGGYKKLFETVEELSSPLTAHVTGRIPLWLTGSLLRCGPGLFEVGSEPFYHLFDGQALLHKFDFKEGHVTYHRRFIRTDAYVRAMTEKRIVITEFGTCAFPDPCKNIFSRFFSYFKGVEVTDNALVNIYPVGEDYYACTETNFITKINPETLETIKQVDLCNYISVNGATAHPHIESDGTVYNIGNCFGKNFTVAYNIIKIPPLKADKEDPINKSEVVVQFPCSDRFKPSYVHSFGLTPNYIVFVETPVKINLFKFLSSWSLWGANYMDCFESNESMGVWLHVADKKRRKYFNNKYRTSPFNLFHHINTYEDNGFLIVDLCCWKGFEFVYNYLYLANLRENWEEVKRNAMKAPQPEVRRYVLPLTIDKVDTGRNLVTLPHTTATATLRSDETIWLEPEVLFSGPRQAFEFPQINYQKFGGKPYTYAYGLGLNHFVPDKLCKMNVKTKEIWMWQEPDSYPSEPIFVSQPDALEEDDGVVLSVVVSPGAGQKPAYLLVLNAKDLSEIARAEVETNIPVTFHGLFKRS

The molecule `NCCC(=O)c1cccc(OCC2CCCCC2)c1` [Example 5, 3-Amino-1-(3-(cyclohexylmethoxy)phenyl)propan-1-one] gave an ED50 in test [1] of 1 mg/kg. The same molecule showed an IC50 in test [2] of at most 1 µM.

As for `NCCOc1cccc(OCC2CCCCC2)c1` [Example 7, 2-(3-(Cyclohexylmethoxy)phenoxy)ethanamine], in test [1], the ED50 amounted to 4.2 mg/kg and the inhibition at 1 mg/kg came out at 17%. Also, the IC50 in test [2] is at most 1 µM.

Regarding `NCCOc1cccc(OCC2CCCCCC2)c1` [Example 9, 2-(3-(Cycloheptylmethoxy)phenoxy)ethanamine], the inhibition at 1 mg/kg in test [1] came out at 6%. In addition, the IC50 in test [2] was at most 1 µM.

In the case of `NCCC(O)c1cccc(OCC2(O)CCCCC2)c1` (stereo not drawn) [Example 12, 1-((3-(3-Amino-1-Hydroxypropyl)Phenoxy)Methyl)Cyclohexanol], the inhibition at 1 mg/kg in test [1] worked out at 59%. The molecule further showed an IC50 in test [2] of at most 1 µM.

Turning to `NCCC(O)c1cccc(OCC2(O)CCCCCC2)c1` (stereo not drawn) [Example 13, 1-((3-(3-Amino-1-Hydroxypropyl)Phenoxy)Methyl)Cycloheptanol], the IC50 in test [3] is at most 0.01 µM; in test [2] it was at most 1 µM. Further, the inhibition at 1 mg/kg in test [1] was determined as 41%.

`NCCCc1cccc(OCC2CCCCCC2)c1` [Example 14, 3-(3-(Cycloheptylmethoxy)phenyl)propan-1-amine]: the inhibition at 1 mg/kg in test [1] turned out to be 89%. For the same molecule, in test [2], the IC50 is at most 1 µM.

As to `NCCC(O)c1cccc(OCC2CCCCCC2)c1` (stereo not drawn) [Example 15, 3-Amino-1-(3-(cycloheptylmethoxy)phenyl)propan-1-ol], the half-inhibitory concentration (IC50) was at most 0.01 µM in test [3] and at most 1 µM in test [2]. In addition, the inhibition at 1 mg/kg in test [1] was 91%.

As to `NCCC(=O)c1cccc(OCC2CCCCCC2)c1` [Example 16, 3-amino-1-(3-(cycloheptylmethoxy)phenyl)propan-1-one], the inhibition at 1 mg/kg in test [1] worked out at 60%. The IC50 in test [2] was at most 1 µM.

Regarding `CCCC(CCC)COc1cccc(C(O)CCN)c1` (stereo not drawn) [Example 17, 3-Amino-1-(3-(2-propylpentyloxy)phenyl)propan-1-ol], the IC50 in test [3] is at most 0.01 µM; in test [2], at most 1 µM. For the same molecule, the inhibition at 1 mg/kg in test [1] stood at 96%.

`CCCC(O)(CCC)COc1cccc(C(O)CCN)c1` (stereo not drawn) [Example 20, 4-((3-(3-Amino-1-hydroxypropyl)phenoxy)methyl)heptan-4-ol]: the inhibition at 1 mg/kg in test [1] worked out at 98%. This molecule showed an IC50 in test [2] of at most 1 µM.

The ED50 is the midpoint of the dose-response relation. Read a low ED50 as an effect at a small dose. What is called IC50 is the concentration needed to halve the response being measured.
